Assay results from ChEMBL document CHEMBL4706528, “The design, synthesis and anti-tumor mechanism study of new androgen receptor degrader” (Eur J Med Chem, 2020).

Columns and labels:
LNCaP [1] = assay: Induction of apoptosis in human LNCaP cells assessed as early apoptotic cells level at 10 micromol/L incubated for 24 hrs by Annexin V/PI staining staining based flow cytometry (reference value: 2.09%); format: functional; settings: dose 10 µmol/L, at 10 µM
LNCaP [2] = assay: Induction of cell cycle arrest in human LNCaP cells assessed as accumulation at G1 phase at 2 micromol/L after 24 hrs by RNase A/PI-staining based flow cytometric analysis (reference value: 47.99%); format: functional; settings: dose 2 µmol/L, at 2 µM
PC-3 = assay: Antiproliferative activity against androgen-negative human PC-3 cells assessed as cell growth inhibition measured after 72 hrs by SRB assay; format: functional, cell-based; settings: PC-3, 72 h

**Q.** Which results are given for `CC1(C)C(=O)N(c2ccc(C#N)c(C(F)(F)F)c2)C(=S)N1CCCCCn1cc(COCCOCCOC(=O)CC23CC4CC(CC(C4)C2)C3)nn1`?
**A.** Activity (LNCaP [1]): 14.4%; Activity (LNCaP [2]): 67.54%; IC50 (PC-3): > 80 µM
